Laboratory results from ChEMBL document CHEMBL1201862, “PubChem BioAssay data set” (2004).
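How tested: cells in 96-well plates exposed to compound for 48 hours at five concentrations. GI50 = concentration required for 50% inhibition of growth.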 Calls of active or inactive are those of the source. Cut-off read from the data, not from the text of the source: active = GI50 up to about 1.1 µM and inactive = higher.

Key:
Assay in all cases: NCI tumour cell line growth inhibition, 48 h
786-0 = test system: 786-0
CAKI-1 = test system: CAKI-1
CCRF-CEM = test system: CCRF-CEM
COLO 205 = test system: COLO 205
DU-145 = test system: DU-145
HCC 2998 = test system: HCC 2998
HT-29 = test system: HT-29
Hs-578T = test system: Hs-578T
LOX IMVI = test system: LOX IMVI
M14 = test system: M14
MCF7 = test system: MCF7
MOLT-4 = test system: MOLT-4
NCI-H226 = test system: NCI-H226
NCI-H23 = test system: NCI-H23
OVCAR-3 = test system: OVCAR-3
OVCAR-8 = test system: OVCAR-8
SK-MEL-28 = test system: SK-MEL-28
SNB-75 = test system: SNB-75
UACC-257 = test system: UACC-257
HOP-92 = test system: HOP-92

Measured: GI50

O=C(O)CC(NC(=O)Nc1ccc([N+](=O)[O-])cc1)C(=O)Nc1ccc([N+](=O)[O-])cc1 (configuration not stated)
inactive: 786-0 > 100 µM | CAKI-1 > 100 µM | CCRF-CEM > 100 µM | COLO 205 > 100 µM | DU-145 > 100 µM | HCC 2998 > 100 µM | HT-29 > 100 µM | Hs-578T 50.2 µM | LOX IMVI > 100 µM | M14 > 100 µM | MCF7 > 100 µM | MOLT-4 > 100 µM | NCI-H226 > 100 µM | NCI-H23 > 100 µM | OVCAR-3 > 100 µM | OVCAR-8 > 100 µM | SK-MEL-28 > 100 µM | SNB-75 > 100 µM | UACC-257 > 100 µM

O=C1NC(Nc2ccccc2)=NC(C(F)(F)F)(C(F)(F)F)N1
inactive: 786-0 39.1 µM | CCRF-CEM 48.6 µM | COLO 205 33.4 µM | DU-145 35.9 µM | HCC 2998 46.7 µM | HOP-92 20.7 µM | HT-29 56.2 µM | Hs-578T 55.3 µM | LOX IMVI 37.2 µM | M14 21.4 µM | MCF7 37.9 µM | MOLT-4 54.5 µM | NCI-H226 41.1 µM | NCI-H23 23.4 µM | OVCAR-3 37.9 µM | OVCAR-8 40.2 µM | SK-MEL-28 47.2 µM | SNB-75 11.5 µM | UACC-257 59.7 µM

COc1cc(OC)c2c(=O)c(OC)c(-c3ccc4c(c3)OCO4)oc2c1
inactive: 786-0 36 µM | CAKI-1 21 µM | CCRF-CEM > 100 µM | COLO 205 > 100 µM | DU-145 48.5 µM | HCC 2998 > 100 µM | HT-29 > 100 µM | Hs-578T 35.1 µM | LOX IMVI 15.8 µM | M14 > 100 µM | MCF7 > 100 µM | MOLT-4 > 100 µM | NCI-H226 46.3 µM | NCI-H23 23.2 µM | OVCAR-3 > 100 µM | OVCAR-8 28.6 µM | SK-MEL-28 > 100 µM | SNB-75 15.9 µM | UACC-257 > 100 µM

COC(=O)CCc1cc(OC)c2c(c1)[C@H](C(=O)OC)[C@@H](c1ccc(O)c(OC)c1)O2
inactive: 786-0 46.3 µM | CCRF-CEM 33.8 µM | COLO 205 41.2 µM | DU-145 > 100 µM | HCC 2998 21.4 µM | HOP-92 > 100 µM | HT-29 36.2 µM | Hs-578T 38.4 µM | LOX IMVI 57.5 µM | M14 38.3 µM | MCF7 49.2 µM | MOLT-4 24.7 µM | NCI-H226 > 100 µM | NCI-H23 38.5 µM | OVCAR-3 47.2 µM | OVCAR-8 78.2 µM | SK-MEL-28 41.9 µM | SNB-75 43.3 µM | UACC-257 > 100 µM

CCCC(=O)NC1=C(NCC)C(=O)c2ccccc2C1=O
inactive: 786-0 > 100 µM | CCRF-CEM > 100 µM | COLO 205 36.6 µM | DU-145 > 100 µM | HCC 2998 86.3 µM | HOP-92 > 100 µM | HT-29 44.1 µM | Hs-578T > 100 µM | M14 > 10 µM | MCF7 63.5 µM | MOLT-4 73.3 µM | NCI-H226 > 100 µM | NCI-H23 > 100 µM | OVCAR-3 34.2 µM | SK-MEL-28 95.7 µM | SNB-75 > 100 µM | UACC-257 39.4 µM

Cc1cn(CC2=NCC(C)N2)c(=O)[nH]c1=O (configuration not stated)
inactive: 786-0 > 100 µM | COLO 205 > 100 µM | DU-145 > 100 µM | HCC 2998 > 100 µM | HOP-92 > 100 µM | HT-29 > 100 µM | Hs-578T > 100 µM | LOX IMVI > 100 µM | M14 > 100 µM | MCF7 > 100 µM | MOLT-4 > 100 µM | NCI-H226 > 100 µM | NCI-H23 > 100 µM | OVCAR-8 > 100 µM | SK-MEL-28 > 100 µM | SNB-75 > 100 µM | UACC-257 > 100 µM

COC(=O)C1(Cc2ccccc2)Cc2c(C)ccc(C)c2C1=O (configuration not stated)
inactive: 786-0 37.5 µM | CCRF-CEM 34.8 µM | COLO 205 12.4 µM | DU-145 49.2 µM | HCC 2998 28 µM | HOP-92 20.1 µM | HT-29 19.8 µM | Hs-578T 5.64 µM | LOX IMVI 17.2 µM | M14 25.1 µM | MCF7 28.7 µM | MOLT-4 18.7 µM | NCI-H226 21.1 µM | NCI-H23 24.2 µM | OVCAR-3 29.2 µM | OVCAR-8 14.4 µM | SK-MEL-28 42.5 µM | SNB-75 17.3 µM | UACC-257 25.8 µM

COC(=O)Cc1cccc2c1CCC2=O
inactive: 786-0 > 100 µM | CCRF-CEM > 100 µM | COLO 205 > 100 µM | DU-145 > 100 µM | HCC 2998 > 100 µM | HOP-92 > 100 µM | HT-29 > 100 µM | Hs-578T > 100 µM | LOX IMVI > 100 µM | M14 > 100 µM | MCF7 > 100 µM | MOLT-4 > 100 µM | NCI-H226 > 100 µM | NCI-H23 > 100 µM | OVCAR-3 > 100 µM | OVCAR-8 > 100 µM | SK-MEL-28 > 100 µM | SNB-75 > 100 µM | UACC-257 > 100 µM

CC(C)C1CC(CO)(CNc2cc(Cl)nc(N)n2)C1 (configuration not stated)
inactive: 786-0 > 100 µM | CAKI-1 > 100 µM | CCRF-CEM 75.7 µM | COLO 205 > 100 µM | DU-145 > 100 µM | HCC 2998 34.8 µM | HOP-92 45 µM | HT-29 > 100 µM | Hs-578T 25.6 µM | LOX IMVI 10.4 µM | MCF7 15 µM | MOLT-4 > 10 µM | NCI-H226 13.5 µM | OVCAR-3 17.9 µM | OVCAR-8 88.9 µM | SK-MEL-28 > 100 µM | UACC-257 1.15 µM

O=C(Nc1cc(C(=O)Nc2cccc(S(=O)(=O)O)c2)cc(C(=O)Nc2cccc(S(=O)(=O)O)c2)c1)c1cccc(C(=O)Nc2cc(C(=O)Nc3cccc(S(=O)(=O)O)c3)cc(C(=O)Nc3cccc(S(=O)(=O)O)c3)c2)c1
inactive: 786-0 > 100 µM | CAKI-1 > 100 µM | CCRF-CEM > 100 µM | COLO 205 > 100 µM | DU-145 > 100 µM | HCC 2998 > 100 µM | HT-29 > 100 µM | Hs-578T > 100 µM | LOX IMVI > 100 µM | M14 97.1 µM | MCF7 > 100 µM | MOLT-4 > 100 µM | NCI-H226 > 100 µM | NCI-H23 > 100 µM | OVCAR-3 > 100 µM | OVCAR-8 > 100 µM | SK-MEL-28 > 100 µM | SNB-75 > 100 µM | UACC-257 > 100 µM

CN(c1cn(C2CC[C@@H](CO)O2)c(=O)[nH]c1=O)C1CCCCC1 (some centres not stated)
inactive: 786-0 > 100 µM | CCRF-CEM > 100 µM | COLO 205 > 100 µM | DU-145 > 100 µM | HCC 2998 > 100 µM | HOP-92 > 100 µM | HT-29 > 100 µM | Hs-578T 30 µM | LOX IMVI > 100 µM | M14 > 100 µM | MCF7 > 100 µM | MOLT-4 > 100 µM | NCI-H226 > 100 µM | NCI-H23 > 100 µM | OVCAR-3 > 100 µM | OVCAR-8 > 100 µM | SK-MEL-28 > 100 µM | SNB-75 21.9 µM
